Laboratory results as given in patent US11767295B2, “Isoindole derivative” (TIANJIN HEMAY PHARMACEUTICAL CO., LTD., priority 2018, dated 2023).

Experiments:
Assay type in all cases: in vivo
[1] = tested on: Phorbol ester (TPA)-induced ear swelling in mice; assay: Inhibition of phorbol ester (TPA)-induced ear swelling in mice (Biological Example 6); conditions: ICR mice, 5 hours after TPA modeling; for Ear Swelling Rate / Inhibitory Rate of Ear Swelling Degree: 2 mg/mouse on right ear; for Ear Swelling Rate: (right−left)/left ear weight; for Inhibitory Rate of Ear Swelling Degree: vs model and blank control; for Ear Swelling Degree: 50 mg/mL in acetone, 40 μL in 2 administrations (2 mg/mouse)
Description: (§1) 72 male ICR mice were selected and divided into 9 groups. There were 8 mice in each group.
(§2) Before the test, the animals were grouped and the hair around the right ear of the mice was removed.
(§3) 20 μL of respective drug was applied to the animals in each test group (a blank solvent was applied to the model control group). Modeling and induction were carried out after 1 h 10 min. Except for the blank group, 20 μL of TPA at a concentration of 125 μg/mL were applied to the right ears of the animals for induction. After induction for 10 minutes, 20 μL of respective drug were applied to the right ears of the animals in each test group (a blank solvent was applied to the model control group).
After modeling for 5 hours, ear pieces of both sides at the same location of animals in each group were taken with a punch and weighed to calculate the ear swelling degree, ear swelling rate and inhibitory rate.
The ear swelling degree and ear swelling rate after modeling and administration for 5 hours were analyzed and tested with One-Way ANOVA multiple-group test index in SPSS17.0. […] Ear swelling degree (mg)=right ear weight (mg)−left ear weight (mg); Ear swelling rate (%)=(right ear weight−left ear weight)/left ear weight×100%; Inhibitory rate of ear swelling degree (%)=1−(swelling degree of drug administration group−swelling degree of blank control group)/(swelling degree of model control group−swelling degree of blank control group)×100%.

[2] = tested on: DNCB-induced atopic dermatitis in Balb/c mice; assay: Efficacy evaluation test of DNCB-induced atopic dermatitis in Balb/c mice model (Biological Example 2); conditions: BID × 10; for Inhibitory Rate of Ear Swelling / Weight Changes of Animals, Day 10 / Weight Changes of Animals, Day 17 / Weight Changes of Animals, Day 18 / Ear Swelling Degree / IgE Concentration / Inhibitory Rate of IgE Concentration: 1 mg/mouse on ear; for Inhibitory Rate of Ear Swelling / Ear Swelling Degree / IgE Concentration / Inhibitory Rate of IgE Concentration: 18th day; for Inhibitory Rate of Ear Swelling / Inhibitory Rate of IgE Concentration: vs model and blank control; for Weight Changes of Animals, Day 1 / Weight Changes of Animals, Day 10 / Weight Changes of Animals, Day 17 / Weight Changes of Animals, Day 18: Balb/c mice, Mean ± S.D.; for Weight Changes of Animals, Day 1: 1 mg/mouse (50 mg/mL, 20 μL) on ear; for Ear Swelling Degree: right minus left ear piece weight; for IgE Concentration / Inhibitory Rate of IgE Concentration: serum
Description: 70 healthy male SPF Balb/c mice, each of which the weight was 19-21 g, were randomly divided into 7 groups by body weight. There were 10 mice in each group.
Before the test, the hair around the right ear of the mouse was removed to reduce the interference in the drug adhesion to the hair.
The start of the test was recorded as Day 1. After the end of the 18th day of the test, blood was taken from each animal to detect the concentration of immunoglobulin (IgE) in the serum (in accordance with the kit instructions). Both ears of the animal were cut off. Ear pieces were cut by an 8 mm punch at the fixed position of the ears and weighed. Differences in the swelling degrees of two ears were calculated.
The IgE concentrations in the serum of different groups on the 18th day were analyzed and compared statistically with One-Way Anova in SPSS 17, respectively. The G test method was used to delete outliers. p<0.05 indicated there were statistical differences. Ear swelling degree (mg)=right ear weight (mg)−left ear weight (mg); Inhibitory rate of ear swelling degree (%)=1−(ear swelling degree of drug administration group−ear swelling degree of blank control group)/(ear swelling degree of model control group−ear swelling degree of blank control group)×100%; Inhibitory rate of IgE (%)=1−(IgE concentration in administration group−IgE concentration in blank control group)/(IgE concentration in model control group−IgE concentration in blank control group)×100%.

ICR mice = assay: Acute toxicity test of single gavage in mice (Biological Example 9); conditions: single gavage 2000 mg/Kg; for Death of animals: 3 male and 3 female, until the end of the test
Description: 30 healthy ICR mice of SPF grade were randomly divided into 5 groups according to the gender segment, in which 15 mice were male and 15 mice were female. There were 3 mice/gender/group. There were 6 mice in each group, in which 3 mice were male and 3 mice were female.
Single administration by gavage was carried out. The symptoms and responses of all the animals were observed after the administration and were recorded faithfully. The test was observed continuously for 15 days. The symptoms of the animals were recorded. After the test, the tissues and organs of all the animals were weighed, observed and recorded. The specimens were kept.
Body weight, appearance, breath, behavior, reflex and defecation.

[3] = tested on: Phorbol ester (TPA)-induced ear swelling in mice; assay: Inhibition of phorbol ester (TPA)-induced ear swelling in mice (Biological Example 5); conditions: ICR mice, 5 hours after TPA modeling
Description: as §1, §2, §3
After modeling for 5 hours, ear pieces of both sides on the same location of animals in each group were taken with a punch and weighed to calculate the ear swelling degree, ear swelling rate and inhibitory rate.
The ear swelling degree and ear swelling rate after modeling and administration for 5 hours were analyzed and tested with One-Way ANOVA multiple-group test index in SPSS17.0. P<0.05 indicated there were statistical differences. Ear swelling degree (mg)=right ear weight (mg)−left ear weight (mg); Ear swelling rate (%)=(right ear weight−left ear weight)/left ear weight×100%; Inhibitory rate of ear swelling degree (%)=1−(ear swelling degree of drug administration group−ear swelling degree of blank control group)/(ear swelling degree of model control group−ear swelling degree of blank control group)×100%.

[4] = female ICR mice, end of the test
[5] = female ICR mice, observed 15 days
[6] = surviving male ICR mice, end of the experiment

Structure (SMILES) | Ear Swelling Rate [1] [%] | Inhibitory Rate of Ear Swelling Degree [1] [%] | Ear Swelling Degree [1] [mg] | Inhibitory Rate of Ear Swelling [2] [%] | Weight Changes of Animals, Day 1 [2] [g] | Weight Changes of Animals, Day 10 [2] [g] | Weight Changes of Animals, Day 17 [2] [g] | Weight Changes of Animals, Day 18 [2] [g] | Ear Swelling Degree [2] [mg] | IgE Concentration [2] [ng/mL] | Inhibitory Rate of IgE Concentration [2] [%] | further results
CCOc1cc(C(CC(=O)OC)N2C(=O)c3cccc(NC(C)=O)c3C2=O)ccc1OC1CCCC1 (stereo not shown) [Example 20, methyl 3-(4-acetamido-1,3-dioxoisoindolin-2-yl)-3-(3-ethoxy-4-cyclopentyloxyphenyl)propionate] | 63.9 ± 19.3 | 73.0 | 8.8 ± 2.8 |  |  |  |  |  |  |  |  | 
COC(=O)CC(c1ccc(OC)c(OC(C)C)c1)N1C(=O)c2cccc(NC(C)=O)c2C1=O (stereo not shown) [Example 46, methyl 3-(4-acetamido-1,3-dioxoisoindolin-2-yl)-3-(3-isopropoxy-4-methoxyphenyl)propionate] | 44.9 ± 35.5 | 82.0 | 6.4 ± 5.3 | 36.2 | 21.6 ± 0.7 | 22.6 ± 0.6 | 23.0 ± 0.7 | 23.1 ± 0.7 | 18.6 ± 3.9 | 4429.8 ± 1713.9 | 51.7 | 
CCOc1cc(C(CC(=O)OC)N2C(=O)c3cccc(O)c3C2=O)ccc1OC (stereo not shown) [Example 32, methyl 3-(4-hydroxy-1,3-dioxoisoindolin-2-yl)-3-(3-ethoxy-4-methoxyphenyl)propionate] | 93.3 ± 28.1 | 55.6 | 13.4 ± 4.0 |  |  |  |  |  |  |  |  | 
COC(=O)C[C@@H](c1ccc(OC)c(OC(C)C)c1)N1C(=O)c2cccc(NC(C)=O)c2C1=O [Example 54, methyl (S)-3-(4-acetamido-1,3-dioxoisoindolin-2-yl)-3-(3-isopropoxy-4-methoxyphenyl)propionate] |  |  |  | 43.1 | 21.6 ± 0.6 | 22.6 ± 0.8 | 23.3 ± 1.2 | 23.1 ± 1.2 | 16.7 ± 3.0 | 4873.7 ± 1356.2 | 45.9 | Death of animals (ICR mice; ICR mice): activity. No death or abnormality of animals was observed; Clinical observation: appearance, breath, behavior, reflex and defecation (ICR mice; ICR mice, male and female, observed 15 days): The main symptom after administration was reduced
COC(=O)CC(c1ccc(OC)c(OC2CCCC2)c1)N1C(=O)c2cccc(NC(C)=O)c2C1=O (stereo not shown) [Example 30, methyl 3-(4-acetamido-1,3-dioxoisoindolin-2-yl)-3-(3-cyclopentyloxy-4-methoxyphenyl)propionate] | 85.0 ± 27.4 | 60.8 | 12.0 ± 3.5 |  |  |  |  |  |  |  |  | 
CCOC(=O)C[C@@H](c1ccc(OC)c(OCC)c1)N1C(=O)c2cccc(NC(C)=O)c2C1=O [Example 52, ethyl (S)-3-(4-acetamido-1,3-dioxoisoindolin-2-yl)-3-(3-ethoxy-4-methoxyphenyl)propionate] |  |  |  | 60.1 | 21.8 ± 0.5 | 22.6 ± 0.9 | 24.3 ± 5.6 | 24.2 ± 6.0 | 12.0 ± 5.4 | 4141.5 ± 2315.0 | 55.5 | Death of animals (ICR mice; ICR mice): 1 male animal died in the second day of the test. It was; Gross anatomy, female animals (ICR mice; [4]): until the end of the test. No abnormalities of gross anatomy; Organ indexes, female animals (ICR mice; [4]): until the end of the test. No abnormalities of gross anatomy; Clinical observation, female animals (ICR mice; [5]): No obvious abnormalities in female animals were observed; Gross anatomy, male animals (ICR mice; [6]): observed until the end of the experiment. No abnormalities; Organ indexes, male animals (ICR mice; [6]): observed until the end of the experiment. No abnormalities
CCOc1cc(C(CC(=O)OC)N2C(=O)c3cccc(NC(C)=O)c3C2=O)ccc1OC(C)C (stereo not shown) [Example 18, methyl 3-(4-acetamido-1,3-dioxoisoindolin-2-yl)-3-(3-ethoxy-4-isopropoxyphenyl)propionate] | 33.9 ± 14.0 | 88.1 | 4.8 ± 1.9 |  |  |  |  |  |  |  |  | 
CCCOc1cc(C(CC(=O)OC)N2C(=O)c3cccc(NC(C)=O)c3C2=O)ccc1OC (stereo not shown) [Example 29, methyl 3-(4-acetamido-1,3-dioxoisoindolin-2-yl)-3-(3-propoxy-4-methoxyphenyl)propionate] | 46.8 ± 33.9 | 81.5 | 6.5 ± 4.6 |  |  |  |  |  |  |  |  | 
CCOc1ccc(C(CC(=O)OC)N2C(=O)c3cccc(NC(C)=O)c3C2=O)cc1OCC (stereo not shown) [Example 4, methyl 3-(4-acetamido-1,3-dioxoisoindolin-2-yl)-3-(3,4-diethoxyphenyl)propionate] |  |  |  |  |  |  |  |  |  |  |  | Clinical observation, female animals (ICR mice; [5]): After administration, no abnormalities of female animals; Clinical observation, male animals (ICR mice; male ICR mice, observed 15 days): The male animals had reduced activity and recovered after; Ear Swelling Rate ([3]; 2 mg/mouse on right ear, (right−left)/left ear weight): 34.3 ± 18.2 %; Inhibitory Rate of Ear Swelling Degree ([3]; 2 mg/mouse on right ear, vs model and blank control): 88.8%; Ear Swelling Degree ([3]; 50 mg/mL in acetone, 40 μL in 2 administrations (2 mg/mouse)): 4.8 ± 2.1 mg
